The results in this text go back to patent US7179612B2, “Method for detecting a lipoprotein-acute phase protein complex and predicting an increased risk of system failure or mortality” (bioMerieux, Inc., priority 2000, dated 2007).

In test [1] the target is T1, VLDL/CRP complex (Homo sapiens, UniProt P02741).
T1 sequence (P02741 19-224): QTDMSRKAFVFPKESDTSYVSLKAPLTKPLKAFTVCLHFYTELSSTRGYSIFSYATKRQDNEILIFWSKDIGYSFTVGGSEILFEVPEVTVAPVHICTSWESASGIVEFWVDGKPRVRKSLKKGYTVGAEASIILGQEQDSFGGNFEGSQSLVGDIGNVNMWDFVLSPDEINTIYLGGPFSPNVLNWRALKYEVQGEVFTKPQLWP
The test can be described thus: Inhibition of VLDL/CRP complex formation (Ca2+-dependent turbidity change). The class given is biochemical. From the text: It is known that CRP binds directly to PC and that PC competes with lipoproteins for binding to CRP.

Test [2] concerns the target T1, VLDL/CRP complex. The test can be described thus: Calcium concentration dependence of formation of the VLDL/CRP complex. Format: biochemical. As to conditions: FIG. 38; read-out: calcium concentration at which complex formation is half maximal. As to the method: FIG. 38 is a graph depicting the calcium concentration dependence of formation of the VLDL/CRP complex. Complex formation is half maximal at 5.0 mM calcium.

The next test addresses T2, CRP (Homo sapiens, UniProt P02741).
T2 construct: from tissue; host or cells: patient plasma (calcium precipitate, ammonium sulfate fractionation, Q-Sepharose peak 3)
T2 sequence (P02741 19-224): T1 sequence (P02741 19-224)
The test can be described thus: Direct binding of apo(B) to CRP.

In general, IC50 refers to the concentration needed to halve the response being measured. Higher therefore signals weaker potency in that assay. Take `NCCCCCC(=O)O` [EACA]: at VLDL/CRP complex [1], the “inhibition of complex formation (result in words)” value (shortened to “inhibition of complex formation”) is on record as “inhibited”. On VLDL/CRP complex [1] (FIG. 40), this molecule gave an IC50 of 2.1 mM.

Turning to `[Ca+2]` [calcium], the EC50 on VLDL/CRP complex [2] amounted to 5 mM.

Turning to `NCCOP(=O)(O)O` [phosphorylethanolamine], the “inhibition of complex formation” value against VLDL/CRP complex [1] is “inhibited”. With “apo(B): apo-lipoprotein B, the major protein component of VLDL”, in the test with CRP, the “direct binding to CRP (result in words)” value is “can bind directly to CRP”. Turning to phosphotidylcholine, the “inhibition of complex formation” value at VLDL/CRP complex [1] is given as “inhibited”. Regarding phosphotidylethanolamine, the “inhibition of complex formation” value at VLDL/CRP complex [1] is given as “inhibited”.
